This passage reports mortality, EC50 and pest or weed control results from patent US20240336615A1, “CYCLOPROPYL-(HETERO)ARYL-SUBSTITUTED ETHYL-SULFOXIME-PYRIDINE DERIVATIVES” (Boehringer Ingelheim Vetmedica GmbH, priority 2023, published 2024).

In general, mortality refers to the percentage killed.

In one assay the test system is Spodoptera litura. Put plainly: Insecticidal test on Spodoptera litura (Example 14). Type of assay: in vivo. To be noted: foliar, 192 h, 500 ppm, cabbage leaf dip, 2nd-instar larvae, 8 days after inoculation, read-out: activity level (corrected mortality rate). How it is done: The compounds of formula (I), (Ia) and/or (Ib) of the present invention or salts thereof are separately dispersed in water and diluted to 500 ppm and 50 ppm. Cabbage leaves are dipped in the dispersion for about 30 seconds. After air dried, the leaves are placed in a plastic Petri dish with a diameter of 9 cm and inoculated with ten 2nd-instar larvae of Spodoptera litura, after which the dish is closed and then allowed to stand in a room at 25° C. 8 days after the inoculation, the numbers of the dead and alive insects are counted. The corrected mortality rate is calculated according to the following formula and the insecticidal activity is evaluated according to the following criteria.
[formula] [formula] • A: the corrected mortality rate is 100% • B: the corrected mortality rate is 90 to 99% • C: the corrected mortality rate is 80 to 89% • D: the corrected mortality rate is 50 to 79%

Assay [1] relates to adult C. felis fleas. Put plainly: Ingestion activity against adult Ctenocephalides felis, membrane feeding, alternative method (Examples 7 and 13). The protocol: Selected compounds of formula (I), (Ia) and (Ib) and compound “125” of WO 2021/033141 dissolved in 100% DMSO are diluted in bovine blood with sodium heparin anti-coagulant. The resulting formulation is offered via an artificial membrane feeding system to approximately 15 adult C. felis fleas previously dispensed into 24-well plates. The plates are then incubated in a double-chambered device. Visual evaluation for mortality is performed at 48 hours post-treatment. Compound efficacy at a given dose is expressed as percentage mortality and determined by normalization to positive and negative controls. A dose response series is implemented to determine EC50 values.
Compounds of formulae (I), (Ia) and/or (Ib) dissolved in 100% DMSO are diluted in bovine blood with sodium heparin anti-coagulant. The resulting formulation is offered via an artificial membrane feeding system to approximately 15 adult C. felis fleas previously dispensed into 24-well plates. The plates are then incubated in a double-chambered device. Visual evaluation for mortality is performed at 48 hours post-treatment. Compound efficacy at a given dose is expressed as percentage mortality and determined by normalization to positive and negative controls. A dose response series is implemented to determine EC50 values.

In a further assay the test system is Plutella xylostella. Put plainly: Insecticidal test on Plutella xylostella (Example 15). Type of assay: in vivo. To be noted: 144 h, Chinese cabbage seedling dip, 6 days after dip treatment, read-out: activity level (corrected mortality rate). The protocol:
The compounds of formula (I), (Ia) and/or (Ib) of the present invention or salts thereof are separately dispersed in water and diluted to 500 ppm and 50 ppm. Ten adults of Plutella xylostella are released onto Chinese cabbage seedlings and allowed to lay eggs thereon. 2 days after the release of the adults, the seedling is dipped in the dispersion for about 30 seconds. After air dried, the seedling is kept in a room at 25° C. 6 days after the dip treatment, the numbers of the dead and alive insects are counted. The corrected mortality rate is calculated according to the following formula and the insecticidal activity is evaluated according to the following criteria.

For a further assay, the system named is Laodelphax striatellus. The assay is described as follows: Insecticidal test on Laodelphax striatellus (Example 16). Type of assay: in vivo. To be noted: 192 h, rice seedling dip, 3rd-instar nymphs, 8 days after inoculation, read-out: activity level (corrected mortality rate). The protocol:
The compounds of formula (I), (Ia) and/or (Ib) of the present invention or salts thereof are separately dispersed in water and diluted to 500 ppm and 50 ppm. Rice plant seedlings are dipped in the dispersion for about 30 seconds. After air dried, the seedlings are put into a separate glass test tube and inoculated with ten 3rd-instar nymphs of Laodelphax striatellus and then the glass test tube is kept in a room at 25° C. 8 days after the inoculation, the numbers of the dead and alive insects are counted. The corrected mortality rate is calculated according to the following formula and the insecticidal activity is evaluated according to the following criteria.

In assay [2] the test system is adult C. felis fleas. Put plainly: Ingestion activity against adult Ctenocephalides felis, membrane feeding, motility (Example 6). The settings on record: 48 h, bovine blood via artificial membrane, 48h post treatment, read-out: EC50 (ingestion activity, % motility reduction). The protocol:
Compounds of formulae (I), (Ia) and/or (Ib) dissolved in 100% DMSO are added to bovine blood and offered via an artificial membrane feeding system to adult C. felis fleas. The motility of fleas is then visually inspected 48h post treatment. Efficacy is expressed in % motility reduction compared to controls containing blood treated with DMSO only. A dose response series is implemented to determine EC50 values.

A further assay relates to Myzus persicae. Put plainly: Insecticidal test on Myzus persicae (Example 17). It is filed as in vivo. The settings on record: 144 h, foliar application on Chinese cabbage, 6 days after application, read-out: control efficacy level (control rate). From the text: The compounds of formula (I), (Ia) and/or (Ib) of the present invention or salts thereof are separately dispersed in water and diluted to 500 ppm and 50 ppm. Chinese cabbage plants are planted in plastic pots (diameter: 8 cm, height: 8 cm). Aphids (Myzus persicae) are propagated on the plants and then the number of surviving aphids is counted. The dispersion is applied to the foliage of the potted plants. After the plants are air dried, these are kept in a greenhouse. 6 days after the application, the number of the alive insects is counted on the plants. The control rate is calculated according to the following formula and the control efficacy is evaluated according to the following criteria. [formula] • Ta: the number of alive insects before the foliar application in a treated plot • T: the number of alive insects after the foliar application in a treated plot • Ca: the number of alive insects before the foliar application in an untreated plot • C: the number of alive insects after the foliar application in an untreated plot • A: the control rate is 100% • B: the control rate is 90 to 99% • C: the control rate is 80 to 89% • D: the control rate is 50 to 79%

The subject of assay [3] is adult Ctenocephalides felis fleas. The assay is described as follows: Contact activity against adult Ctenocephalides felis (Example 4). To be noted: adult C. felis, coated pipe cleaner in vial, 72 hours post-treatment, read-out: EC50 (contact activity, percentage mortality). How it is done: Compounds of formulae (I), (Ia) and/or (Ib) dissolved in 100% DMSO are diluted in acetone to a desired concentration. The resulting formulation is used to coat the fibers of a 0.5-inch-long piece of pipe cleaner placed in a glass scintillation vial. The vial is capped with a rubber gasket and filter paper insert. After the acetone has evaporated, ten adult Ctenocephalides felis fleas are added to each vial. The vials are then incubated at 22° C., 80% relative humidity, and 12 hours of light/12 hours of dark until a visual evaluation for mortality is performed at 72 hours post-treatment. Compound efficacy at a given dose is expressed as percentage mortality and adjusted to remove background mortality observed in control vials containing DMSO only. A dose response series of treated vials is implemented to determine EC50 values.

Where [4] appears, read: Ctenocephalides felis, adult C. felis, bovine blood with sodium heparin, membrane feeding, 48 hours post-treatment, read-out: EC50 (ingestion activity, percentage mortality, alternative method).
[5] abbreviates: Ctenocephalides felis, alternative method according to Example 7, mortality at 48 hours post-treatment, read-out: C. felis membrane feeding (ingestion/blood feeding) activity EC50.
Where [6] appears, read: alternative method according to Example 7, mortality at 48 hours post-treatment, read-out: C. felis membrane feeding (ingestion/blood feeding) activity EC50.

As to `CCS(=N)(=O)c1cc(-c2ccc(C3(C#N)CC3)cc2)cnc1-c1nc2cc(C(C)(F)F)cnc2n1C` (stereo not shown) [Compound 2], the mortality at 500 ppm with Spodoptera litura, with Plutella xylostella and in the assay with Laodelphax striatellus was 100% each time. Also, the EC50 in the assay with adult C. felis fleas [1] (setting [4]) and with adult C. felis fleas [2] was 1000 to 10000 nM in each case. Moreover, the pest or weed control at 500 ppm in the assay on Myzus persicae was 100%.
As for `CCS(=N)(=O)c1cc(-c2noc(C3(C(F)(F)F)CC3)n2)cnc1-c1nc2cc(C(F)(F)C3CC3)nnc2n1C` (stereo not shown) [Compound 4], the EC50 with adult C. felis fleas [1] (setting [4]) is below 1000 nM; with adult C. felis fleas [1] (setting [5]), 474 nM; in assay [3], 10 to 100 µM; in the assay with adult C. felis fleas [2], below 1000 nM.
Consider `CC[S@](=N)(=O)c1cc(-c2noc(C3CC3)n2)cnc1-c1nc2cc(C(F)(F)C(F)(F)F)cnc2n1C` [Compound 7a, (S)-[5-(5-cyclopropyl-1,2,4-oxadiazol-3-yl)-2-[3-methyl-6-(1,1,2,2,2-pentafluoroethyl)-3H-imidazo[4,5-b]pyridin-2-yl]pyridin-3-yl](ethyl)imino-lambda6-sulfanone], for which, in the assay on adult C. felis fleas [1] (setting [6]), the EC50 amounted to 385 nM.
The same measure, in the same setting: with `CC[S@@](=N)(=O)c1cc(-c2noc(C3CC3)n2)cnc1-c1nc2cc(C(F)(F)C(F)(F)F)cnc2n1C` [Compound 7b, (R)-[5-(5-cyclopropyl-1,2,4-oxadiazol-3-yl)-2-[3-methyl-6-(1,1,2,2,2-pentafluoroethyl)-3H-imidazo[4,5-b]pyridin-2-yl]pyridin-3-yl](ethyl)imino-lambda6-sulfanone] the figure was 1350 nM; with `CC[SH](=N)(O)c1cc(-c2noc(C3CC3)n2)cnc1-c1nc2cc(C(F)(F)C(F)(F)F)nnc2n1C` [Compound 8a], 482 nM.
In the case of `CCS(=N)(=O)c1cc(-c2noc(C3CC3)n2)cnc1-c1nc2cc(C(C)(F)F)cnc2n1C` (stereo not shown) [Compound 10], the mortality at 500 ppm with Plutella xylostella and in the assay with Laodelphax striatellus was 100% each time. In the assay on Myzus persicae, the pest or weed control at 500 ppm worked out at 100%.
Consider `CCS(=N)(=O)c1cc(-c2noc(C3CC3)n2)cnc1-c1nc2cc(C(F)(F)C3CC3)cnc2n1C` (stereo not shown) [Compound 12], for which the mortality at 50 ppm with Plutella xylostella was found to be 100%. In addition, in the assay on Myzus persicae, the pest or weed control at 500 ppm was determined as 100%.
Turning to `CCS(=N)(=O)c1cc(-c2noc(C3CC3)n2)cnc1-c1nc2cc(C(C)(F)F)nnc2n1C` (stereo not shown) [Compound 13], the EC50 is 1000 to 10000 nM in the assay with adult C. felis fleas [1] (setting [4]) and below 1000 nM in the assay with adult C. felis fleas [2]. In addition, the mortality at 50 ppm with Plutella xylostella and with Laodelphax striatellus was 100% throughout. For the same compound, in the assay with Myzus persicae, the pest or weed control at 50 ppm stood at 100%.
For `CCS(=N)(=O)c1cc(-c2noc(C3CC3)n2)cnc1-c1nc2cc(C(F)(F)C3CC3)nnc2n1C` (stereo not shown) [Compound 15], the EC50 with adult C. felis fleas [1] (setting [4]) was 1000 to 10000 nM. Moreover, the mortality at 500 ppm in the assay on Plutella xylostella and in the assay with Laodelphax striatellus was 100% in each case. The pest or weed control at 500 ppm in the assay with Myzus persicae is 100%.
Regarding `CCS(=N)(=O)c1cc(-c2ccc(C3(C#N)CC3)cc2)cnc1-c1nc2cc(C(C)(F)F)cn(CC(F)F)c-2c1F` (stereo not shown) [Compound 16], the EC50 in the assay with adult C. felis fleas [1] (setting [4]) was 1000 to 10000 nM.
Turning to `CCS(=N)(=O)c1cc(-c2ccc(C3(C#N)CC3)cc2)cnc1-c1nc2cc(C(F)(F)F)cn(CC(F)F)c-2c1F` (stereo not shown) [Compound 17], the results for the EC50 in the assay with adult C. felis fleas [1] (setting [4]) and with adult C. felis fleas [1] (setting [5]) were below 1000 nM and 330 nM, respectively.
`CCS(=N)(=O)c1cc(-c2noc(C3(F)CC3)n2)cnc1-c1nc2cc(C(C)(F)F)cnc2n1C` (stereo not shown) [Compound 18]: the mortality at 50 ppm with Plutella xylostella and in the assay on Laodelphax striatellus was 100% each time. Also, the pest or weed control at 50 ppm in the assay with Myzus persicae was 100%.
Consider `CCS(=N)(=O)c1cc(-n2cc(C3(C#N)CC3)cn2)cnc1-c1nc2cc(C(F)(F)C(F)(F)F)cnc2n1C` (stereo not shown) [Compound 26], for which the mortality at 500 ppm in the assay with Spodoptera litura, in the assay with Plutella xylostella and in the assay with Laodelphax striatellus was 100% in each case. Besides, the values for the EC50 in the assay with adult C. felis fleas [1] (setting [4]), in the assay with adult C. felis fleas [1] (setting [5]) and in the assay with adult C. felis fleas [2] were below 1000 nM, 875 nM and below 1000 nM, respectively. Further, the pest or weed control at 500 ppm with Myzus persicae is 100%.
For the compound `CCS(=N)(=O)c1cc(-c2noc(C3(F)CC3)n2)cnc1-c1nc2cc(C(C)(F)F)nnc2n1C` (stereo not shown) [Compound 29], the EC50 lay within 1000 to 10000 nM with adult C. felis fleas [1] (setting [4]) and 10 to 100 µM in assay [3]. For the same compound, the mortality at 500 ppm with Plutella xylostella and in the assay on Laodelphax striatellus was 100% each time. Moreover, the pest or weed control at 500 ppm in the assay with Myzus persicae was 100%.
Consider `CCS(=N)(=O)c1cc(-c2noc(C3(F)CC3)n2)cnc1-c1nc2cc(C(F)(F)C(F)(F)F)nnc2n1C` (stereo not shown) [Compound 32], for which the EC50 is below 1000 nM in the assay on adult C. felis fleas [1] (setting [4]), 417 nM with adult C. felis fleas [1] (setting [5]), below 10 µM in assay [3] and below 1000 nM with adult C. felis fleas [2]. Moreover, the mortality at 50 ppm with Plutella xylostella and with Laodelphax striatellus was 100% in each case. Also, the pest or weed control at 50 ppm with Myzus persicae came to 100%.
In the case of `CCS(=N)(=O)c1cc(-n2cc(C3(C#N)CC3)cn2)cnc1-c1nc2cc(C(F)(F)C(F)(F)F)nnc2n1C` (stereo not shown) [Compound 33], the EC50 in the assay with adult C. felis fleas [1] (setting [4]) is below 1000 nM; with adult C. felis fleas [1] (setting [5]) it was 437 nM; in the assay on adult C. felis fleas [2] it was 1000 to 10000 nM. In addition, the mortality at 50 ppm in the assay on Plutella xylostella and in the assay on Laodelphax striatellus was 100% each time. The pest or weed control at 50 ppm in the assay with Myzus persicae was 100%.
As for `CCS(=N)(=O)c1cc(-c2ccc(C3(C#N)CC3)cc2)cnc1-n1cc2cnc(C(F)(F)F)cc2n1` (stereo not shown) [Compound 35], the EC50 was below 1000 nM with adult C. felis fleas [1] (setting [4]), 771 nM with adult C. felis fleas [1] (setting [5]) and 1000 to 10000 nM in the assay with adult C. felis fleas [2].
